# Source: patent publication US20070123467A1, “Amniotic-derived peptide and uses thereof” (priority 2003, published 2007)
# Residues, ends and D or L forms follow the SMILES beside them.
# How the values were obtained:
# IL-10 = test: Blood levels of IL-10, ELISA (Example 14); format: in vivo, mouse
# Method: (§1) Plasma samples were obtained by blood obtained from individual mice at sacrifice. TNF-α, IFN-γ and IL-10 were measured by mouse specific solid-phase ELISA according to the manufacturer's (Celbio Euroclone, Milan, Italy) instructions. Intra and inter-assays coefficient of variations were within 10%. The limit of sensitivity of the assays were 7 pg/ml. For statistical analysis, samples with undetectable amounts of cytokine were assigned 7 pg as theoretical value.
# (§2) Injection of LPS is associated with a marked increase in the blood levels of both type 1 (IFN-γ, TNF-α, IL-1) and type 2 (IL-10) cytokines that occurs with different kinetic after the inoculation of the toxin. To evaluate the effects of LAP treatment on LPS-induced cytokine increase in the circulation of the mice, experiments were carried out where mice treated with 10 mcg LAP or its vehicle, were sacrificed just before injection of a sublethal dose of LPS one hour after treatment with either LAP or PBS (T0) and then 2 (T2) and 8 (T8) hours after LPS.
# LPS-induced lethality = test: Time and dose effects of LAP on LPS-induced lethality (Example 14); format: in vivo, CD1 mice; details: 1 mg LPS i.p.
# Method: To induce lethal endotoxemia, the mice were injected i.p. with 1 mg lipopolysaccharide (LPS, Cod. L6011, lot 112K4063, Sigma Chimica, Milan, Italy). LAP was provided by Lajor BioTech (Pittsburgh, Pa. USA), dissolved volume/volume in trifluoroacetic acid 0.1% in water and Na2HPO4 and injected ip in a final volume of 100 mcl.
# Statistical analysis was performed by chi-square for lethality and one way ANOVA for cytokine measurements. P values lower than 0.05 were taken as significant.
# [1] = system: auto-immune diabetes in the NOD mouse; details: in vivo
# From the text: (§3) Female NOD mice (Charles River, Calco, Italy) were maintained under standard laboratory conditions (non-specific pathogen free) with free access to food and water. During the study period of diabetes prevention the mice were screened for diabetes development twice a week by means of glycosuria followed, when positive, by measurement of glycaemia. Mice are diagnosed as diabetic when fasting glycaemia is above 12 mmol/l for 2 consecutive days.
# (§4) Euglycaemic female NOD mice were randomly allocated into 4 different groups receiving either LAP or vehicle starting at the 4th or at the 12th week of age. Because insulitis is virtually absent in 4-week-old NOD mice and is actively ongoing at 12 weeks, this approach allowed us to investigate the effects of LAP-treatment in both the early and late diabetogenic stages of the NOD mouse. The readout of the early prohylactic treatment was to evaluate the effect of LAP on development of insulitis, while the readout of the late prophylactic treatment was to evaluate the effect of LAP on the incidence of clinically overt diabetes.
# (§5) For the early prophylactic treatment 4-week-old NOD mice were treated with either 10 mcg LAP (dissolved and diluted [100 mcl final volume] as described in Example 14 and 15) or 100 mcl vehicle, daily, six times weekly until the age of 14 weeks. At this point, the euglycaemic mice were sacrificed and their pancreatic specimens collected for histological examination of insulitis.
# (§6) For the late prophylactic treatment, 12-week-old NOD mice were randomly divided into two experimental groups, one treated with LAP and the other with vehicle, under the same experimental regime described for the early prophylactic treatment.
# (§7) Histological examination of the pancreatic islets was performed in a blind fashion by two pathologists unaware of the status and/or the treatment of the animals, as described previously (See 16-3 to 16-5). The degree of mononuclear cell infiltration is graded as follows: 0, no infiltrate; 1, peri-ductular infiltrate; 2, peri-islet infiltrate; 3, intra-islet infiltrate; 4, intra-islet infiltrate associated with β-cell destruction. At least 12 islets are counted for each mouse. The mean score for each pancreas is calculated by dividing the total score by the numbers of islets.
# TNF-α = test: LPS-induced blood levels of TNF-α, ELISA (Example 14); format: in vivo, mouse; details: 10 mcg LAP
# Method: as §1, §2
# Con A-induced hepatitis = Con A-induced hepatitis in mice, plasma ALAT, LAP prophylaxis (Example 15); format: in vivo, CD1 male mice
# Method: Eight weeks old outbred CD1 male mice (Charles River, Calco, Italy) were kept under standard laboratory conditions (non-specific pathogen free) at 24° C. with free access to food and water. The food was withdrawn 16 hours prior to the experiments.
# Con A (Sigma Chemical, St. Louis, Mo.), dissolved in sterile phosphate-buffered saline (PBS) was injected into the tail veins. The groups were treated with either LAP (dissolved volume/volume in trifluoroacetic acid 0.1% in water and Na2HPO4 and then further diluted in water for injection), or its vehicle, 1 hour prior to and one hour after Con A. An additional group of control mice was injected with Con A and received no treatment. Finally, other two groups of mice were also included for comparison that were either injected i.v. with PBS or received no treatment (Table 8). LAP, its vehicle, PBS and Con A were all injected in a final volume of 100 microliter (mcl). The animals were sacrificed for blood collection 8 hours after Con A injection, when biochemical and signs (transaminases increase) of hepatic injury are pronounced (15-1 to 15-9). Mice dead before sacrifice (Table 8) were not included.
# Plasma alanine aminotransferase (ALAT) activity was determined by a standard photometric assay using a bichromatic analyzer. Results are expressed in U/L
# Results are shown as mean values ±SD. Statistical analysis was performed by one way ANOVA. The effect of LAP was considered to be statistically significant when the difference of ALAT blood levels versus controls yields a p value at least lower than 0.05.
# IFN-γ = test: LPS-induced blood levels of IFN-γ, ELISA (Example 14); format: in vivo, mouse; details: 10 mcg LAP; 2 and 8 hours after LPS
# Method: as §1, §2
# CD4+CD25− T cells = test: T cell proliferation assay, thymidine incorporation (Example 21); format: cell-based, Balb/c mouse
# Method: T cell proliferation assays were set up as follows. Antigen presenting cells (APCs) obtained as single cell suspension from Balb/c mouse spleens were pulsed with fecal extract (from Balb/C mice) overnight in 24 well-plate (1×10^6 cells/ml with 400 μg/ml of extract). Responding cells were obtained from Balb/c mouse spleens as CD4^+CD25^− T cells. CD4+ T cells were selected by DYNABEADS, and CD4^+CD25^− T cells were then selected using labelled anti-CD25 antibody (e.g. PE-labelled anti-CD25). Responding T cells were co-cultured with APC in 96 round bottom well-plate (3.3×10^4 responding cell/1×10^5 APC in 200 μl) in the presence or absence of LAP for 5 days. Immune cell proliferation was then determined by standard thymidine incorporation assays.
# [2] = system: LPS-induced lethality in mice; test: Potency of LAP in counteracting lethality induced by a DL100 dose of LPS (Example 3); format: in vivo, CD1 mice; details: for Lethality 24 h / Lethality 24 h (dead/total) / Lethality 48 h / Lethality 48 h (dead/total) / Lethality 72 h / Lethality 72 h (dead/total): LPS 1 mg/mouse
# From the text: Synthetic peptide or Lajor Active Peptide (LAP) was synthesized chemically to produce the amino acid sequence of the previously-identified bioactive peptide contained in Fractions 2, 3 and 4 of the low molecular weight components of PLB. […] Mice treated with Fraction 4 prepared from PLB were used as positive controls.
# Six weeks old female CD1 mice (Charles River, Calco, Italy) were used. The mice were allowed to adapt one week to their environment before commencing the study. They were kept under standard laboratory condition with ad libitum food and water.
# The mice were injected i.p. with 1 mg of lipopolysaccharide (LPS) (Sigma Chimica, Milan, Italy). Mortality was recorded every 24 hours up to 72 hours after challenge with LPS.
# [3] = system: auto-immune diabetes in the NOD mouse; test: LAP in development of insulitis and auto-immune diabetes in NOD mouse (Example 16)
# From the text: as §3, §4, §5, §6, §7
smiles,measurement,setting,value
"CC[C@H](C)[C@H](NC(=O)[C@H](CCC(=O)O)NC(=O)[C@@H](NC(=O)[C@H](C)NC(=O)[C@H](CO)NC(=O)[C@@H](NC(=O)[C@@H](N)CC(N)=O)C(C)C)C(C)C)C(=O)N[C@@H](C)C(=O)O [LAP, NH2-NVSAVEIA-COOH] (H-NVSAVEIA-OH)",LPS-induced blood levels of IL-10 (in words),"IL-10; 10 mcg LAP, 2 and 8 hours after LPS",did not modify
same,mice with detectable levels of IL-10 in the blood,"IL-10; T0, 1 hour after 10 mcg LAP, before LPS, 0 out of 10 controls",3 out of 10
same,Lethality 72 h,"LPS-induced lethality; 1 mcg at −24, −1 h",(79%)
same,Lethality 72 h (dead/total),"LPS-induced lethality; 1 mcg at −24, −1 h",11/14
same,Lethality 72 h,LPS-induced lethality; 10 mcg at +1 h,(71%)
same,Lethality 72 h (dead/total),LPS-induced lethality; 10 mcg at +1 h,10/14
same,Lethality 72 h,"LPS-induced lethality; 10 mcg at −1, +1 h",(14%)
same,Lethality 72 h (dead/total),"LPS-induced lethality; 10 mcg at −1, +1 h",2/14
same,Lethality 72 h,"LPS-induced lethality; 10 mcg at −24, −1 h",(14%)
same,Lethality 72 h (dead/total),"LPS-induced lethality; 10 mcg at −24, −1 h",2/14
same,Lethality 72 h,"LPS-induced lethality; 20 mcg at −1, +1 h",(100%)
same,Lethality 72 h (dead/total),"LPS-induced lethality; 20 mcg at −1, +1 h",14/14
same,tolerability of long-term administration (clinical appearance and behaviours),[1],apparently well tolerated
same,reduction of TNF-α blood levels vs. controls,"TNF-α; 2 hours after sublethal LPS (0.5 mg/mouse), p=0.01",37.3%
same,reduction of TNF-α blood levels vs. controls,"TNF-α; 8 hours after sublethal LPS (0.5 mg/mouse), p=0.005",76.5%
same,reduction of ALAT vs controls,Con A-induced hepatitis; 8 hours after Con A,84.7%
same,ALAT values,"Con A-induced hepatitis; LAP 1 hour prior to and one hour after Con A, 8 hours after Con A, mean ± SD",686 ± 197b U/L
same,Lethality (dead before sacrifice/total),"Con A-induced hepatitis; LAP 1 hour prior to and one hour after Con A, within 8 hours",1/15
same,LPS-induced blood levels of IFN-γ (in words),IFN-γ,did not modify
same,CD4+CD25− T cell proliferation in response to antigen-pulsed APCs in the presence of the peptide,CD4+CD25− T cells; 5 days co-culture,inhibited
same,T cell proliferation in response to APCs pre-treated with the peptide,CD4+CD25− T cells; APCs pre-treated for 24 hours,not affected
same,Lethality 24 h,"[2]; 2.5 mcg at −24, −1 h",10%
same,Lethality 24 h (dead/total),"[2]; 2.5 mcg at −24, −1 h",(2/20)
same,Lethality 48 h,"[2]; 2.5 mcg at −24, −1 h",35%
same,Lethality 48 h (dead/total),"[2]; 2.5 mcg at −24, −1 h",(7/20)
same,Lethality 72 h,"[2]; 2.5 mcg at −24, −1 h",80%
same,Lethality 72 h (dead/total),"[2]; 2.5 mcg at −24, −1 h",(16/20)
same,Lethality 24 h,"[2]; 10 mcg at −24, −1 h",10%
same,Lethality 24 h (dead/total),"[2]; 10 mcg at −24, −1 h",(2/20)
same,Lethality 48 h,"[2]; 10 mcg at −24, −1 h",35%
same,Lethality 48 h (dead/total),"[2]; 10 mcg at −24, −1 h",(7/20)
same,Lethality 72 h,"[2]; 10 mcg at −24, −1 h",50%
same,Lethality 72 h (dead/total),"[2]; 10 mcg at −24, −1 h",(10/20) c
same,kinetic and cumulative rate of lethality (in words),[2]; different doses of LAP tested,unaffected
same,cumulative rate of lethality (in words),[2]; prophylactic treatment with 10 ucg,markedly reduced
same,NOD mice that developed diabetes during the treatment period,"[3]; early prophylaxis, 4 to 14 weeks of age, 2 of 8 vehicle controls",None and none
same,insulitis score,"[3]; early prophylaxis, 10 mcg daily six times weekly from 4 to 14 weeks of age, vehicle 2±0.9",0.9±0.6
same,azotemia and transaminases values vs controls,[3]; mice sacrificed at week 14,no differences
